In general, LD50 refers to the dose expected to kill half of the subjects tested.

The source of these data is patent US4835156A, “Vasodilatory dihydrodibenzocycloheptyliden-ethyl piperazine derivatives and process for the preparation of these compounds” (Sociedad Espanola De Especialidades Terepeuticas, S.A., priority 1983, dated 1989).

In data set [1] the test system is Rabbit cerebral territory. Nature of the data set: Vasodilation in perfused rabbit cerebral territory (variation in perfusion pressure).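 For Vasodilatory Activity (Rabbit cerebral territory) Evaluation: four crosses equal an effect comparable to the standard drug.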 It counts as in vivo. As to conditions: for Vasodilatory Index: % vasodilation multiplied by duration of action; for Vasodilatory Activity (Rabbit cerebral territory) Evaluation: crosses relative to standard cinnarizine. Here is the method:
(§1) The significance of the symbols is as follows:
In a further trial, the vasodilatory activity is evaluated by the technique of vasodilation in perfused rabbit cerebral territory as described by P. Vaupel and H. Hutten (Arzneim. Forsch./Drug Res. 30(I), 598-602 (1980)), calculating the variation in perfusion pressure after treatment (Table 3).
Table 3 employs the same conventional signs based on crosses, with the same relative significance as in Table 2.

A further data set has as its system Rat hind-quarters. Nature of the data set: Vasodilatory activity, isolated rat hind-quarters (antagonism of vasoconstriction by hyperkalaemic Tyrode solution).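 Note: four crosses equal an effect comparable to the standard drug.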 As to conditions: crosses relative to standard drugs cinnarizine and flunarizine.
Excerpt: as §1
In order to test the vasodilatory activity, the first trial employs the technique of the isolated rat hind-quarters (Table 2), which involves antagonizing the vasoconstrictive effect of perfusion of hyperkalaemic Tyrode solution, according to the method of F. N. Fastier and F. H. Smirk (J. Pharm. Exp. Therap. 89, […] (1947)), and then calculating for the products which show the greatest activity, the ED30, that is the dose which produces a 30% vasodilatory activity with respect to the basic vasoconstriction.

Data set [2] can be described thus: Toxicity, indicative LD50, intraperitoneal. The conditions noted are these: mouse, in vivo, ip, Swiss mice, 7 days post-administration. The procedure:
Table 4 sets forth the results of the indicative LD50 for the most representative of the compounds according to the present invention.
The compounds are administered by the intraperitoneal route to Swiss mice, after which the toxic effects are observed, and the mortality rate and the LD50 7 days post-administration are calculated.

The structures appear in SMILES notation.

Take `O=C(CN1CCN(CC=C2c3ccccc3CCc3ccccc32)CC1)N1CCCC1` [WAS-4224]: in data set [1], the “Vasodilatory Index” value is reported as 342.0 mm^2 and the “Vasodilatory Activity (Rabbit cerebral territory) Evaluation” value was “+++”. Further, the “Vasodilatory Activity (Rat hind-quarters) Evaluation” value in the data set with Rat hind-quarters is listed as 0. In data set [2], this compound had an LD50 at 168 h of 385 mg/kg.

For the compound `O=C(CN1CCN(CC=C2c3ccccc3CCc3ccccc32)CC1)N1CCCCC1` [WAS-4223], in data set [1], the “Vasodilatory Index” value turned out to be 1133.6 mm^2 and the “Vasodilatory Activity (Rabbit cerebral territory) Evaluation” value is given as “++++”. The “Vasodilatory Activity (Rat hind-quarters) Evaluation” value in the data set on Rat hind-quarters is given as 0. This compound also returned a median lethal dose (LD50) at 168 h in data set [2] of 185 mg/kg.

Take `C(CN1CCN(Cc2ccccn2)CC1)=C1c2ccccc2CCc2ccccc21` [WAS-4232]: in data set [1], the “Vasodilatory Index” value is 46.8 mm^2 and the “Vasodilatory Activity (Rabbit cerebral territory) Evaluation” value came out at 0. Moreover, the “Vasodilatory Activity (Rat hind-quarters) Evaluation” value in the data set on Rat hind-quarters is “++”. In data set [2], this compound returned an LD50 at 168 h of 115 mg/kg.

Consider `C=CCN1CCN(CC=C2c3ccccc3CCc3ccccc32)CC1` [WAS-4225], for which, in data set [1], the “Vasodilatory Index” value stood at 0 mm^2 and the “Vasodilatory Activity (Rabbit cerebral territory) Evaluation” value amounted to 0. In the data set with Rat hind-quarters, the “Vasodilatory Activity (Rat hind-quarters) Evaluation” value is “++++”. In data set [2], the 50% lethal dose (LD50) at 168 h came to 175 mg/kg.

On to `C(CN1CCN(Cc2ccncc2)CC1)=C1c2ccccc2CCc2ccccc21` [WAS-4220], for which, in data set [1], the “Vasodilatory Index” value stood at 1159.2 mm^2 and the “Vasodilatory Activity (Rabbit cerebral territory) Evaluation” value is on record as “++++”. For the same compound, in the data set on Rat hind-quarters, the “Vasodilatory Activity (Rat hind-quarters) Evaluation” value worked out at 0. The LD50 at 168 h in data set [2] amounted to 185 mg/kg.

With `O=C(CN1CCN(CC=C2c3ccccc3CCc3ccccc32)CC1)NC12CC3CC(CC(C3)C1)C2` [WAS-4239], in data set [1], the “Vasodilatory Index” value is listed as 0 mm^2 and the “Vasodilatory Activity (Rabbit cerebral territory) Evaluation” value is 0. Besides, the “Vasodilatory Activity (Rat hind-quarters) Evaluation” value in the data set with Rat hind-quarters was “++”. Besides, in data set [2], the LD50 at 168 h was 340 mg/kg.

On to `C(CN1CCN(Cc2ccccc2)CC1)=C1c2ccccc2CCc2ccccc21` [WAS-4206, N-benzyl-N'-2-(10,11-dihydrodibenzo-(a,d)-cyclohept-5-yliden)-ethyl piperazine], for which, in data set [1], the “Vasodilatory Index” value amounted to 285.3 mm^2 and the “Vasodilatory Activity (Rabbit cerebral territory) Evaluation” value is listed as “++”. Moreover, the “Vasodilatory Activity (Rat hind-quarters) Evaluation” value in the data set on Rat hind-quarters is “++++”. In data set [2], this compound came in with a 50% lethal dose (LD50) at 168 h of 880 mg/kg.

For the compound `C(=Cc1ccccc1)CN1CCN(CC=C2c3ccccc3CCc3ccccc32)CC1` [WAS-4207], in data set [1], the “Vasodilatory Index” value is 16.2 mm^2 and the “Vasodilatory Activity (Rabbit cerebral territory) Evaluation” value came to 0. Besides, the “Vasodilatory Activity (Rat hind-quarters) Evaluation” value in the data set with Rat hind-quarters was “++++”. Moreover, in data set [2], the LD50 at 168 h turned out to be 925 mg/kg.

For `C(CN1CCN(Cc2ccc3c(c2)OCO3)CC1)=C1c2ccccc2CCc2ccccc21` [WAS-4234], in data set [1], the “Vasodilatory Index” value worked out at 0 mm^2 and the “Vasodilatory Activity (Rabbit cerebral territory) Evaluation” value was 0. Further, the “Vasodilatory Activity (Rat hind-quarters) Evaluation” value in the data set on Rat hind-quarters is 0. Besides, in data set [2], the 50% lethal dose (LD50) at 168 h was found to be 600 mg/kg.

As for `O=C(CN1CCN(CC=C2c3ccccc3CCc3ccccc32)CC1)c1ccccc1` [WAS-4602], in data set [1], the “Vasodilatory Index” value turned out to be 378.3 mm^2 and the “Vasodilatory Activity (Rabbit cerebral territory) Evaluation” value is given as “+++”. Further, the “Vasodilatory Activity (Rat hind-quarters) Evaluation” value with Rat hind-quarters was determined as 0. In data set [2], this compound had an LD50 at 168 h of 200 mg/kg.

In the case of `CCOC(=O)CN1CCN(CC=C2c3ccccc3CCc3ccccc32)CC1` [WAS-4231], in data set [1], the “Vasodilatory Index” value was found to be 0 mm^2 and the “Vasodilatory Activity (Rabbit cerebral territory) Evaluation” value is 0. The “Vasodilatory Activity (Rat hind-quarters) Evaluation” value with Rat hind-quarters is on record as “++”. The LD50 at 168 h in data set [2] was 175 mg/kg.

For the compound `OCCN1CCN(CC=C2c3ccccc3CCc3ccccc32)CC1` [WAS-4229], in data set [1], the “Vasodilatory Index” value is 55.6 mm^2 and the “Vasodilatory Activity (Rabbit cerebral territory) Evaluation” value is 0. Also, in the data set on Rat hind-quarters, the “Vasodilatory Activity (Rat hind-quarters) Evaluation” value is 0. This compound also yielded a 50% lethal dose (LD50) at 168 h in data set [2] of 115 mg/kg.

For `O=C(CN1CCN(CC=C2c3ccccc3CCc3ccccc32)CC1)NC(=O)NCN1CCOCC1` [WAS-4601], in data set [1], the “Vasodilatory Index” value came out at 180.8 mm^2 and the “Vasodilatory Activity (Rabbit cerebral territory) Evaluation” value is “+”. The “Vasodilatory Activity (Rat hind-quarters) Evaluation” value in the data set on Rat hind-quarters is reported as “++++”. In addition, the 50% lethal dose (LD50) at 168 h in data set [2] came out at 125 mg/kg.

Turning to `O=C(O)CN1CCN(CC=C2c3ccccc3CCc3ccccc32)CC1` [WAS-4233], in data set [1], the “Vasodilatory Index” value came to 0 mm^2 and the “Vasodilatory Activity (Rabbit cerebral territory) Evaluation” value is reported as 0. Further, the “Vasodilatory Activity (Rat hind-quarters) Evaluation” value in the data set with Rat hind-quarters is recorded as 0. Besides, in data set [2], the LD50 at 168 h turned out to be 900 mg/kg.

Consider `C(CN1CCN(Cc2cccs2)CC1)=C1c2ccccc2CCc2ccccc21` [WAS-4226, N-2-(10,11-dihydrodibenzo-(a,d)-cyclohept-5-yliden)-ethyl-N'-(2-thenyl)-piperazine], for which, in data set [1], the “Vasodilatory Index” value stood at 74.0 mm^2 and the “Vasodilatory Activity (Rabbit cerebral territory) Evaluation” value was 0. Besides, in the data set with Rat hind-quarters, the “Vasodilatory Activity (Rat hind-quarters) Evaluation” value amounted to 0. Moreover, the LD50 at 168 h in data set [2] was determined as 385 mg/kg.

In the case of `Fc1ccc(C(c2ccc(F)cc2)N2CCN(C/C=C/c3ccccc3)CC2)cc1` [Flunarizine, reference compound], the “Vasodilatory Activity (Rat hind-quarters) Evaluation” value in the data set on Rat hind-quarters is listed as “++++”.

For `O=C(CN1CCN(CC=C2c3ccccc3CCc3ccccc32)CC1)N1CCOCC1` [WAS-4222], in data set [1], the “Vasodilatory Index” value came out at 454.6 mm^2 and the “Vasodilatory Activity (Rabbit cerebral territory) Evaluation” value is reported as “++++”. Moreover, the “Vasodilatory Activity (Rat hind-quarters) Evaluation” value in the data set on Rat hind-quarters was “+”. The same compound had an LD50 at 168 h in data set [2] of 185 mg/kg.

For `C(CN1CCN(Cc2ccco2)CC1)=C1c2ccccc2CCc2ccccc21` [WAS-4221], in data set [1], the “Vasodilatory Index” value worked out at 321.4 mm^2 and the “Vasodilatory Activity (Rabbit cerebral territory) Evaluation” value was “+++”. For the same compound, in the data set on Rat hind-quarters, the “Vasodilatory Activity (Rat hind-quarters) Evaluation” value turned out to be 0. The LD50 at 168 h in data set [2] turned out to be 185 mg/kg.

For `O=C(C=CCN1CCN(CC=C2c3ccccc3CCc3ccccc32)CC1)c1ccccc1` [WAS-4605], in data set [1], the “Vasodilatory Index” value worked out at 420.9 mm^2 and the “Vasodilatory Activity (Rabbit cerebral territory) Evaluation” value is recorded as “++++”. Besides, the “Vasodilatory Activity (Rat hind-quarters) Evaluation” value in the data set with Rat hind-quarters is given as “++++”. This compound returned an LD50 at 168 h in data set [2] of 115 mg/kg.

As for `COC(=O)c1cc(CN2CCN(CC=C3c4ccccc4CCc4ccccc43)CC2)ccc1O` [WAS-4604], in data set [1], the “Vasodilatory Index” value amounted to 20.0 mm^2 and the “Vasodilatory Activity (Rabbit cerebral territory) Evaluation” value is listed as 0. The “Vasodilatory Activity (Rat hind-quarters) Evaluation” value with Rat hind-quarters is listed as “+”. This compound gave an LD50 at 168 h in data set [2] of 900 mg/kg.

As for `C(CN1CCN(Cc2cccnc2)CC1)=C1c2ccccc2CCc2ccccc21` [WAS-4227], in data set [1], the “Vasodilatory Index” value is reported as 253.7 mm^2 and the “Vasodilatory Activity (Rabbit cerebral territory) Evaluation” value was “++”. In addition, in the data set on Rat hind-quarters, the “Vasodilatory Activity (Rat hind-quarters) Evaluation” value is “+”. Also, the median lethal dose (LD50) at 168 h in data set [2] was found to be 175 mg/kg.

Take `COC(=O)C=CCN1CCN(CC=C2c3ccccc3CCc3ccccc32)CC1` [WAS-4237]: in data set [1], the “Vasodilatory Index” value stood at 19.6 mm^2 and the “Vasodilatory Activity (Rabbit cerebral territory) Evaluation” value was found to be 0. Moreover, the “Vasodilatory Activity (Rat hind-quarters) Evaluation” value in the data set with Rat hind-quarters is reported as “++++”. The median lethal dose (LD50) at 168 h in data set [2] came to 3000 mg/kg.
